Like-named read-outs stand apart in the source and are kept apart here.
Experiments:
[1] = biological target: hROMK (hKir1.1) (Homo sapiens (Human), UniProt P48048); test: Thallium Flux Assay (ROMK channel functional thallium flux, FLIPR-Tetra); type: cell-based
Description: Cell Culture Conditions—HEK293 cells stably expressing hROMK (hKir1.1) were grown at 37° C. in a 10% CO2 humidified incubator in complete growth media: Dulbecco's Modified Eagle Medium supplemented with non-essential amino acids, Penicillin/Streptomycin/Glutamine, G418 and FBS. At >80% confluency, aspirate the media from the flask and rinse with 10 mL Calcium/Magnesium-free PBS. […] To dislodge the cell, gently bang the side of the flask with your hand. Triturate the cells completely and then transfer the cells to 25 mL complete media. Centrifuge at 1,500 rpm for 6 min followed by resuspension in complete growth media and determine cell concentration. […] Under ideal growth conditions and appropriate tissue culture practices, this cell line is stable for 40-45 passages.
FluxOR Kit Components (Invitrogen F10017) • FluxOR™ Reagent (Component A) • FluxOR™ Assay Buffer (Component B)—10× Concentrate • PowerLoad™ Concentrate (Component C)—100× Concentrate • Probenecid (Component D)—Lyophilized sample is kept at −20° C. Water soluble, 100× after solubilization in 1 mL water. […] Store at 4° C. • Thallium sulfate (Tl2SO4) Concentrate (Component G)—50 mM in water. Store at 4° C. • DMSO (dimethyl sulfoxide, Component H)—1 mL (100%)
Can be stored at room temperature • Stimulant Buffer (prepared at 5× final concentration in 1× FluxOR™ Chloride-Free Buffer): 7.5 mM Thallium sulfate and 0.75 mM Potassium sulfate (to give a final assay concentration of 3 mM Thallium/0.3 mM Potassium). Store at 4° C. when not in use. If kept sterile, this solution is good for months.
Assay Protocol—The ROMK channel functional thallium flux assay is performed in 384 wells, using the FLIPR-Tetra instrument. HEK-hKir1.1 cells are seeded in Poly-D-Lysine microplates and kept in a 37° C.-10% CO2 incubator overnight. On the day of the experiment, the growth media is replaced with the FluxOR™ reagent loading buffer and incubated, protected from light, at ambient temperature (23-25° C.) for 90 min. The loading buffer is replaced with assay buffer±test compound followed by 30 min incubation at ambient temperature, where the Thallium/Potassium stimulant is added to the microplate.
Step Protocol • 1. Seed HEK-hKir1.1 cells (50 μl at 20,000 cells/well) in 384-well PDL coated Microplates • 2. Allow cells to adhere overnight in humidified 37° C./10% CO2 incubator • 3. Completely remove cell growth media from microplate and replace with 25 μl loading buffer • 4. Incubate Microplate at room temperature, protected form light, for 90 min • 5. Remove loading buffer and replace with 25 μl 1× Assay Buffer±test compound. • 6. Incubate microplate at room temperature, protected from light, for 30 min • 7. […] Excitation=400 nm, Emission=460 & 580 nm. Collect data for ˜10 min.
Data Calculation—The fluorescence intensity of wells containing 3 μM of a standard control ROMK inhibitor of the present invention is used to define the ROMK-sensitive component of thallium flux. Fluorescence in the presence of test compounds is normalized to control values to provide % fluorescence change.

[2] = biological target: Kir1.1 (ROMK1) (Homo sapiens (Human), UniProt P48048); test: Electrophysiology Assay (whole cell voltage clamp, IonWorks Quattro); type: cell-based; conditions: block during voltage step to 0 mV
Description: Chinese hamster ovary cells stably expressing Kir1.1 channels were maintained in T-75 flasks in cell culture media in a humidified 10% CO2 incubator at 37° C. Prior to an experiment, Kir1.1 expression was induced by overnight incubation with 1 mM sodium butyrate. […] After centrifugation, the cell pellet was resuspended in approximately 4.0 mL of bath solution and placed in the IonWorks instrument. The intracellular solution consisted of (in mM): 80 K gluconate, 40 KCl, 20 KF, 3.2 MgCl2, 3 EGTA, 5 Hepes, pH 7.4. Electrical access to the cytoplasm was achieved by perforation in 0.13 mg/mL amphotericin B for 4 min. […] Voltage protocols and current recordings were performed using the IonWorks HT software/hardware system. Currents were sampled at 1 kHz. No correction for liquid junction potentials was used. The test pulse, consisting of a 100 ms step to 0 mV from a holding potential of −70 mV, followed by a 100 ms voltage ramp from −70 mV to +70 mV, was applied before and after a 6 min compound incubation period. Test compounds were prepared by diluting DMSO stock solutions into the bath solution at 3× the final concentration and placed in the instrument in 96-well polypropylene plates. Current amplitudes were measured using the IonWorks software.

[3] = HEK293 cells stably expressing hROMK (hKir1.1), read-out: Thallium Flux IC50
[4] = Chinese hamster ovary cells stably expressing Kir1.1, read-out: Electrophysiology IC50
[5] = Electrophysiology IC50, Chinese hamster ovary cells stably expressing Kir1.1

hROMK (hKir1.1), sequence (P48048 whole entry): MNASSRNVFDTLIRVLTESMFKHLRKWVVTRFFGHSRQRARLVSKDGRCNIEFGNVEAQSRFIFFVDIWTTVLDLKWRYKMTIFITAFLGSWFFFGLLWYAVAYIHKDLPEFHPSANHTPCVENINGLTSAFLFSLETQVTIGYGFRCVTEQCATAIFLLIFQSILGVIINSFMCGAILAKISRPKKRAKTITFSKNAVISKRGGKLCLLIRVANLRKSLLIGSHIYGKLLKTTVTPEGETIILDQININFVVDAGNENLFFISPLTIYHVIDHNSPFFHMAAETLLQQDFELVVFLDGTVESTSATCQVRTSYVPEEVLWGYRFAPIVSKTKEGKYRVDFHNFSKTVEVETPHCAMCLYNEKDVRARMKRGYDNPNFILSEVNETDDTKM
Kir1.1 (ROMK1), sequence (P48048 whole entry): as above

Cc1c(CC(=O)N2CCN3C[C@@H](c4ccc(F)c(C#N)c4C)OC[C@H]3C2)cccc1-n1cnnn1 [Example 60, 6-fluoro-2-methyl-3-[(3R,9aR)-8-{[2-methyl-3-(1H-tetrazol-1-yl)phenyl]acetyl}octahydropyrazino[2,1-c][1,4]oxazin-3-yl]benzonitrile]
IC50 [1, 3]: 440 nM
IC50 [2, 4]: 420 nM

COc1cc(CC(=O)N2CCN3C[C@H](c4ccc5c(c4)CCOC5=O)OC[C@H]3C2)ccc1C#N [Example 28, 2-methoxy-4-{2-oxo-2-[(3S,9aR)-3-(1-oxo-3,4-dihydro-1H-isochromen-6-yl)hexahydropyrazino[2,1-c][1,4]oxazin-8(1H)-yl]ethyl}benzonitrile]
IC50 [1, 3]: 330 nM
IC50 [2, 5]: 130 nM

O=C(Cc1ccc(-n2cnnn2)cc1)N1CCN2C[C@@H](c3ccc4nonc4c3)OC[C@@H]2C1 [Example 77, (3R,9aS)-3-(2,1,3-benzoxadiazol-5-yl)-8-{[4-(1H-tetrazol-1-yl)phenyl]acetyl}octahydropyrazino[2,1-c][1,4]oxazine]
IC50 [1, 3]: 150 nM
IC50 [2, 5]: 50 nM

Cc1c([C@H]2CN3CCN(C(=O)Cc4c(F)cc(-n5cnnn5)cc4F)C[C@H]3CN2)ccc(F)c1C#N [Example 103]
IC50 ([1]; Thallium Flux IC50): 110 nM
IC50 [2, 5]: 80 nM

Cc1c([C@H]2CN3CCN(C(=O)C4CCc5cc(-n6cnnn6)ccc54)C[C@H]3CO2)ccc2c1COC2=O (single isomer, unassigned) [Example 81]
IC50 [1, 3]: 230 nM
IC50 [2, 4]: 260 nM

N#Cc1cc([C@@H]2CN3CCN(C(=O)C4CCc5cc(-n6cnnn6)ccc54)C[C@H]3CO2)ccc1F (stereo partly drawn) [Example 4, 2-fluoro-5-[(3R,9aS)-8-{[5-(1H-tetrazol-1-yl)-2,3-dihydro-1H-inden-1-yl]carbonyl}octahydropyrazino[2,1-c][1,4]oxazin-3-yl]benzonitrile]
IC50 [2, 4]: 190 nM

COc1cc(CC(=O)N2CCN3C[C@@H](c4ccc5c(c4C)COC5=O)OC[C@@H]3C2)c(F)cc1C#N [Example 17, 5-fluoro-2-methoxy-4-{2-[(3R,9aS)-3-(4-methyl-1-oxo-1,3-dihydro-2-benzofuran-5-yl)hexahydropyrazino[2,1-c][1,4]oxazin-8(1H)-yl]-2-oxoethyl}benzonitrile]
IC50 [2, 4]: 160 nM

N#Cc1cc([C@H]2CN3CCN(C(=O)C4CCc5cc(-n6cnnn6)ccc54)C[C@H]3CO2)ccc1F (stereo partly drawn) [Example 3, 2-fluoro-5-[(3S,9aS)-8-{[5-(1H-tetrazol-1-yl)-2,3-dihydro-1H-inden-1-yl]carbonyl}octahydropyrazino[2,1-c][1,4]oxazin-3-yl]benzonitrile]
IC50 [2, 4]: 180 nM

O=C1OCc2cc([C@@H]3CN4CCN(C(=O)C5CCc6cc(-n7cnnn7)ccc65)C[C@H]4CO3)ccc21 (stereo partly drawn) [Example 12, 5-[(3R,9aS)-8-{[5-(1H-tetrazol-1-yl)-2,3-dihydro-1H-inden-1-yl]carbonyl}octahydropyrazino[2,1-c][1,4]oxazin-3-yl]-2-benzofuran-1(3H)-one]
IC50 [2, 4]: 250 nM

COc1cc(CC(=O)N2CCN3C[C@@H](c4ccc(F)c(C#N)c4)OC[C@@H]3C2)ccc1C#N [Example 6]
IC50 [2, 5]: 160 nM

N#Cc1cc([C@@H]2CN3CCN(C(=O)Cc4cc(F)c(C#N)cc4F)C[C@H]3CO2)ccc1F [Example 5, 4-{2-[(3R,9aS)-3-(3-cyano-4-fluorophenyl)hexahydropyrazino[2,1-c][1,4]oxazin-8(1H)-yl]-2-oxoethyl}-2,5-difluorobenzonitrile]
IC50 [2, 5]: 120 nM

O=C1OCc2cc([C@H]3CN4CCN(C(=O)C5CCc6cc(-n7cnnn7)ccc65)C[C@H]4CO3)ccc21 (stereo partly drawn) [Example 11, 5-[(3S,9aS)-8-{[5-(1H-tetrazol-1-yl)-2,3-dihydro-1H-inden-1-yl]carbonyl}octahydropyrazino[2,1-c][1,4]oxazin-3-yl]-2-benzofuran-1(3H)-one]
IC50 [2, 4]: 340 nM

Cc1c([C@H]2CN3CCN(C(=O)CCc4cccc(-n5cnnn5)c4)CC3CO2)ccc(F)c1C#N (stereo in doubt) [Example 73, 6-fluoro-2-methyl-3-[(3S,9aS)-8-{3-[3-(1H-tetrazol-1-yl)phenyl]propanoyl}octahydropyrazino[2,1-c][1,4]oxazin-3-yl]benzonitrile]
IC50 [1, 3]: 140 nM

Cc1c([C@H]2CN3CCN(C(=O)CCc4cccc(-n5cnnn5)c4)C[C@H]3CO2)ccc2c1COC2=O [Example 71, 4-methyl-5-[(3S,9aS)-8-{3-[3-(1H-tetrazol-1-yl)phenyl]propanoyl}octahydropyrazino[2,1-c][1,4]oxazin-3-yl]-2-benzofuran-1(3H)-one]
IC50 [1, 3]: 490 nM

Cc1c([C@H]2CN3CCN(C(=O)C4Cc5ccc(-n6cnnn6)cc5C4)C[C@H]3CO2)ccc(F)c1C#N (stereo partly drawn) [Example 74, 6-fluoro-2-methyl-3-[(3S,9aS)-8-{[5-(1H-tetrazol-1-yl)-2,3-dihydro-1H-inden-2-yl]carbonyl}octahydropyrazino[2,1-c][1,4]oxazin-3-yl]benzonitrile]
IC50 [2, 4]: 160 nM

COc1cc(CC(=O)N2CCN3C[C@H](c4ccc5c(c4C)COC5=O)OC[C@@H]3C2)c(F)cc1C#N [Example 16, 5-fluoro-2-methoxy-4-{2-[(3S,9aS)-3-(4-methyl-1-oxo-1,3-dihydro-2-benzofuran-5-yl)hexahydropyrazino[2,1-c][1,4]oxazin-8(1H)-yl]-2-oxoethyl}benzonitrile]
IC50 [2, 4]: 180 nM

O=C1OCc2cc([C@H]3CN4CCN(C(=O)Cc5ccc(-n6cnnn6)cc5)C[C@H]4CO3)ccc21 [Example 7, 5-[(3S,9aS)-8-{[4-(1H-tetrazol-1-yl)phenyl]acetyl}octahydropyrazino[2,1-c][1,4]oxazin-3-yl]-2-benzofuran-1(3H)-one]
IC50 [2, 4]: 170 nM

COc1cc(CC(=O)N2CCN3C[C@H](c4ccc5c(c4)COC5=O)OC[C@@H]3C2)c(F)cc1C#N [Example 9, 5-fluoro-2-methoxy-4-{2-oxo-2-[(3S,9aS)-3-(1-oxo-1,3-dihydro-2-benzofuran-5-yl)hexahydropyrazino[2,1-c][1,4]oxazin-8(1H)-yl]ethyl}benzonitrile]
IC50 [2, 4]: 140 nM

Cc1c([C@@H]2CN3CCN(C(=O)CCc4cccc(-n5cnnn5)c4)C[C@H]3CO2)ccc(F)c1C#N [Example 72, 6-fluoro-2-methyl-3-[(3R,9aS)-8-{3-[3-(1H-tetrazol-1-yl)phenyl]propanoyl}octahydropyrazino[2,1-c][1,4]oxazin-3-yl]benzonitrile]
IC50 [1, 3]: 270 nM

O=C1OCc2cc([C@@H]3CN4CCN(C(=O)Cc5ccc(-n6cnnn6)cc5)C[C@H]4CO3)ccc21 [Example 8, 5-[(3R,9aS)-8-{[4-(1H-tetrazol-1-yl)phenyl]acetyl}octahydropyrazino[2,1-c][1,4]oxazin-3-yl]-2-benzofuran-1(3H)-one]
IC50 [2, 4]: 140 nM

Cc1c([C@H]2CN3CCN(C(=O)Cc4ccc(-n5cnnn5)cc4)C[C@H]3CO2)ccc2c1COC2=O [Example 1B, 4-methyl-5-[(3S,9aS)-8-{[4-(1H-tetrazol-1-yl)phenyl]acetyl}octahydropyrazino[2,1-c][1,4]oxazin-3-yl]-2-benzofuran-1(3H)-one]
IC50 [2, 5]: 330 nM

Source: patent US9573961B2, “Inhibitors of the renal outer medullary potassium channel” (Merck Sharp & Dohme Corp., priority 2012, dated 2017)
